Measured values published in patent US20070112068A1, “Nitrile compound and its use in pest control” (priority 2003, published 2007).

Experiments:
Assay type in all cases: in vivo
[1] = tested on: Blattalla germanica; assay: Experimental Example 3: treated filter paper with sucrose bait, German cockroach; settings: 500 ppm, 0.7 ml on filter paper; two male imagoes; after 6 days
Method: A filter paper having a diameter of 5.5 cm was spread on the bottom of a polyethylene cup having a diameter of 5.5 cm and 0.7 ml of the experimental pesticidal solution was added dropwise onto the filter paper. As a bait 30 mg of sucrose was uniformly placed on the filter paper. Into the polyethylene cup, two male Blattalla germanica imagoes were released and the cup was sealed with a lid. After 6 days, the number of surviving Blattalla germanica was examined and the death rate of the pest was calculated.

[2] = tested on: Blattella germanica; assay: Experimental Example 14: topical application, Blattella germanica; settings: 1 μl of 1% (w/v) acetone solution onto sternum of thorax of female imagoes; after 7 days
Method: 1% (w/v) solutions of the present compounds (4), (20), (22), (23), (24), (29), (30), (31), (35), (36), (37), (38), (46), (53), (54), (56), (57), (59), (61), (66), (67), (68), (69), (70), (71), (79), (81), (83), (84), (89), and (90) in acetone were prepared. Onto the sternum of the thorax of female imagoes of Blattella germanica, 1 μl of the acetone solution was added dropwise. The imagoes were transferred to a plastic cup having a diameter of about 9 cm and a height of about 4.5 cm and left together with feed and water at 25° C. After 7 days, the number of surviving Blattella germanica was examined and the death rate of the pest was calculated. 10 imagoes of Blattella germanica were put in a cup and three replicate experiments were performed.

[3] = tested on: Periplaneta fuliginosa; assay: Experimental Example 16: treated filter paper in paper box, Periplaneta fuliginosa; settings: 0.1 ml of 5% (w/v) acetone solution on filter paper in paper box; after 7 days
Method: (§1) 5% (w/v) solutions of the present compounds (23), (24) and (31) in acetone were prepared. 0.1 ml of the solution was added dropwise onto a filter paper with 2 cm×2 cm and then air-dried. This filter paper was attached to the center of the inside bottom of a paper box having 10 cm (width)×2 cm (height)×7 cm (depth) with a two-sided tape. One hole of 2 mm in width and 2 cm in height was made through one side of this box. This box was placed in a plastic vat with 25 cm×20 cm×8 cm in height and therein 3 females and 3 males of Periplaneta fuliginosa were released. The inside wall of the plastic vat used in this experiment was coated with talc for preventing the escape of cockroaches. The plastic vat contained feed and water and left at 25° C. After 7 days, Periplaneta fuliginosa was observed and the death rate of the pest was calculated. This experiment was repeated two times.

[4] = tested on: Blattella germanica; assay: Experimental Example 15: treated filter paper in paper box, Blattella germanica; settings: 0.1 ml of 2.5% (w/v) acetone solution on filter paper in paper box; after 7 days
Method: as §1, with “2.5% (w/v)” for “5% (w/v)”, “of 5” for “of 2”, “therein 10” for “therein 3”, “and 10” for “and 3”, “of Blattella germanica” for “of Periplaneta fuliginosa”, “days, Blattella germanica” for “days, Periplaneta fuliginosa”

N#CC(C#N)(CCCCCl)CCC(F)(F)F [(3)]
death rate of the pest [1]: 100%

N#CC(C#N)(CCC(F)(F)F)CC1CC1(Cl)Cl (stereo not shown) [(4)]
death rate of the pest [1]: 100%
death rate of the pest [2]: 100%

N#CC(C#N)(CCC(F)(F)F)CCC(F)(F)F [(5)]
death rate of the pest [1]: 100%

CCCCCC(C#N)(C#N)CCC(F)(F)F [(9)]
death rate of the pest [1]: 100%

CCCCCCC(C#N)(C#N)CCC(F)(F)F [(10)]
death rate of the pest [1]: 100%

N#CC(C#N)(CCC(F)=C(F)F)CCC(F)(F)F [(17)]
death rate of the pest [1]: 100%

N#CC(C#N)(CCC(F)(F)F)CC(F)(F)C(F)F [(20)]
death rate of the pest [1]: 100%
death rate of the pest [2]: 100%

N#CC(C#N)(CCC(F)(F)F)CC(F)(F)F [(21)]
death rate of the pest [1]: 100%

N#CC(C#N)(CCC(F)(F)F)CC(F)(F)C(F)(F)F [(22)]
death rate of the pest [1]: 100%
death rate of the pest [2]: 100%

N#CC(C#N)(CCC(F)(F)F)CC(F)(F)C(F)C(F)(F)F (stereo not shown) [(23)]
death rate of the pest [1]: 100%
death rate of the pest [3]: 91.7%
death rate of the pest [2]: 100%
death rate of the pest [4]: 97.5%

N#CC(C#N)(CCC(F)(F)F)CC(F)(F)C(F)(F)C(F)(F)F [(24)]
death rate of the pest [1]: 100%
death rate of the pest [3]: 100%
death rate of the pest [2]: 100%
death rate of the pest [4]: 100%

N#CC(C#N)(CCF)CCC(F)(F)F [(25)]
death rate of the pest [1]: 100%

C#CCC(C#N)(C#N)CCC(F)(F)F [(27)]
death rate of the pest [1]: 100%

N#CC(C#N)(CCC(F)(F)F)CCC(F)(F)C(F)(F)F [(29)]
death rate of the pest [1]: 100%
death rate of the pest [2]: 100%

N#CC(C#N)(CCC(F)(F)F)CCC(F)(Cl)C(F)(F)Br (stereo not shown) [(30)]
death rate of the pest [1]: 100%
death rate of the pest [2]: 100%

N#CC(C#N)(CCC(F)(F)F)CC(F)(F)C(F)(F)C(F)(F)C(F)(F)C(F)(F)C(F)F [(32)]
death rate of the pest [1]: 100%

N#CC(C#N)(CCC(F)(F)F)CCC(F)(F)C(F)(F)Br [(35)]
death rate of the pest [1]: 100%
death rate of the pest [2]: 100%

N#CC(C#N)(CCC(F)(F)F)CCC(F)(C(F)(F)F)C(F)(F)F [(36)]
death rate of the pest [1]: 100%
death rate of the pest [2]: 100%

N#CC(C#N)(CCC(F)(F)F)CCC(F)(F)C(F)(F)C(F)(F)F [(37)]
death rate of the pest [1]: 100%
death rate of the pest [2]: 100%

N#CC(C#N)(CCC(F)(F)F)CCC(F)(F)C(F)(F)C(F)(F)C(F)(F)F [(38)]
death rate of the pest [1]: 100%
death rate of the pest [2]: 100%

N#CC(C#N)(CCC(F)(Cl)C(F)(F)Br)CC(F)(F)C(F)C(F)(F)F (stereo not shown) [(46)]
death rate of the pest [1]: 100%
death rate of the pest [2]: 100%

C=CCC(C#N)(C#N)CC(F)(F)C(F)(F)C(F)(F)C(F)F [(47)]
death rate of the pest [1]: 100%

N#CC(C#N)(CCCC(F)(F)F)CCC(F)(F)F [(48)]
death rate of the pest [1]: 100%

N#CC(C#N)(CC(F)(F)C(F)F)CC(F)(F)C(F)F [(50)]
death rate of the pest [1]: 100%

N#CC(C#N)(CBr)CCC(F)(F)F [(52)]
death rate of the pest [1]: 100%

N#CC(C#N)(CCC(F)(F)F)CCC(F)(Cl)C(F)(F)Cl (stereo not shown) [(54)]
death rate of the pest [1]: 100%
death rate of the pest [2]: 100%

N#CC(C#N)(CCCCCF)CCC(F)(F)F [(55)]
death rate of the pest [1]: 100%

N#CC(C#N)(CCC(F)(C(F)(F)F)C(F)(F)F)CCC(F)(C(F)(F)F)C(F)(F)F [(56)]
death rate of the pest [1]: 100%
death rate of the pest [2]: 100%

N#CC(C#N)(CC(Br)C(F)(F)F)CC(F)(F)C(F)(F)C(F)(F)C(F)F (stereo not shown) [(57)]
death rate of the pest [2]: 100%

N#CC(C#N)(CCC(F)(F)F)CC(Cl)C(F)(F)F (stereo not shown) [(58)]
death rate of the pest [1]: 100%

CC(F)(F)CCC(C#N)(C#N)CC(F)(F)C(F)(F)C(F)(F)C(F)F [(59)]
death rate of the pest [1]: 100%
death rate of the pest [2]: 100%

N#CC(C#N)(CCCCC(F)F)CCC(F)(F)F [(60)]
death rate of the pest [1]: 100%

N#CC(C#N)(CC(F)(F)C(F)F)CC(F)(F)C(F)(F)C(F)(F)C(F)F [(61)]
death rate of the pest [1]: 100%
death rate of the pest [2]: 100%

CC(F)(F)CCC(C#N)(C#N)CCC(F)(F)F [(64)]
death rate of the pest [1]: 100%

N#CC(C#N)(CCCC(F)(F)F)CC(F)(F)C(F)(F)C(F)(F)C(F)F [(66)]
death rate of the pest [1]: 100%
death rate of the pest [2]: 100%

N#CC(C#N)(CCC(F)(Cl)C(F)(F)Cl)CC(F)(F)C(F)(F)C(F)(F)C(F)F (stereo not shown) [(67)]
death rate of the pest [1]: 100%
death rate of the pest [2]: 100%

N#CC(C#N)(CCC(F)(F)C(F)(F)F)CC(F)(F)C(F)(F)C(F)(F)C(F)F [(68)]
death rate of the pest [1]: 100%
death rate of the pest [2]: 100%

N#CC(C#N)(CC(Cl)C(F)(F)F)CC(F)(F)C(F)(F)C(F)(F)C(F)F (stereo not shown) [(69)]
death rate of the pest [1]: 100%
death rate of the pest [2]: 100%

CCC(F)(F)CCC(C#N)(C#N)CCC(F)(F)F [(70)]
death rate of the pest [2]: 100%

N#CC(C#N)(CCC(F)(F)C(F)(F)C(F)(F)F)CC(F)(F)C(F)(F)C(F)(F)C(F)F [(71)]
death rate of the pest [1]: 100%
death rate of the pest [2]: 100%

N#CC(C#N)(CC1CC1)CC(F)(F)C(F)(F)C(F)(F)C(F)F [(72)]
death rate of the pest [1]: 100%

C=CCCC(C#N)(C#N)CC(F)(F)C(F)(F)C(F)(F)C(F)F [(73)]
death rate of the pest [1]: 100%

N#CC(C#N)(CCCF)CC(F)(F)C(F)(F)C(F)(F)C(F)F [(74)]
death rate of the pest [1]: 100%

N#CC(C#N)(CCC(F)=C(F)F)CC(F)(F)C(F)(F)C(F)(F)C(F)F [(75)]
death rate of the pest [1]: 100%

CC(C)=CCC(C#N)(C#N)CC(F)(F)C(F)(F)C(F)(F)C(F)F [(78)]
death rate of the pest [1]: 100%

N#CC(C#N)(CC(F)(F)C(F)(F)C(F)(F)F)CC(F)(F)C(F)(F)C(F)(F)C(F)F [(79)]
death rate of the pest [1]: 100%
death rate of the pest [2]: 100%

CCCCC(C#N)(C#N)CC(F)(F)C(F)(F)C(F)(F)C(F)F [(80)]
death rate of the pest [1]: 100%

N#CC(C#N)(CC(F)(F)C(F)C(F)(F)F)CC(F)(F)C(F)(F)C(F)(F)C(F)F (stereo not shown) [(81)]
death rate of the pest [1]: 100%
death rate of the pest [2]: 100%

CCCC(C#N)(C#N)CC(F)(F)C(F)(F)C(F)(F)C(F)F [(82)]
death rate of the pest [1]: 100%

N#CC(C#N)(CCC(F)(F)F)CC1CCC(F)(F)CC1 [(83)]
death rate of the pest [1]: 100%
death rate of the pest [2]: 100%

N#CC(C#N)(CCC1CCC(F)(F)C1)CCC(F)(F)F (stereo not shown) [(84)]
death rate of the pest [2]: 100%

N#CC(C#N)(CCC(F)(F)F)C[C@H]1CCC[C@@H](C(F)F)C1 [(87)]
death rate of the pest [1]: 100%

N#CC(C#N)(CCC(F)(F)F)C[C@H]1CCC[C@@H](CF)C1 [(88)]
death rate of the pest [1]: 100%

N#CC(C#N)(CCCC(F)(F)C(F)(F)F)CCC(F)(F)F [(89)]
death rate of the pest [1]: 100%
death rate of the pest [2]: 100%

CC(F)(F)CCCC(C#N)(C#N)CCC(F)(F)F [(90)]
death rate of the pest [2]: 100%

N#CC(C#N)(CC(F)(F)C(F)(F)F)CC(F)(F)C(F)(F)F [(93)]
death rate of the pest [1]: 100%
